How the values were obtained:
[1] = system: Tyrosine-protein kinase ABL1 (Homo sapiens), P00519 [H396P]; conditions: Compound concentration 1000.0 nM
[2] = system: Tyrosine-protein kinase ABL1 (Homo sapiens), P00519 [Y253F]; conditions: Compound concentration 1000.0 nM
[3] = molecular target: Atypical kinase COQ8B, mitochondrial (Homo sapiens) (UniProt Q96D53); conditions: Compound concentration 1000.0 nM
[4] = molecular target: RAC-beta serine/threonine-protein kinase (Homo sapiens) (UniProt P31751); conditions: Compound concentration 1000.0 nM
[5] = molecular target: Cyclin-dependent kinase 11B (Homo sapiens) (UniProt P21127); conditions: Compound concentration 1000.0 nM
[6] = molecular target: Cyclin-dependent kinase 7 (Homo sapiens) (UniProt P50613); conditions: Compound concentration 1000.0 nM
[7] = molecular target: Casein kinase I isoform gamma-3 (Homo sapiens) (UniProt Q9Y6M4); conditions: Compound concentration 1000.0 nM
[8] = molecular target: Serine/threonine-protein kinase DCLK3 (Homo sapiens) (UniProt Q9C098); conditions: Compound concentration 1000.0 nM
[9] = molecular target: Epithelial discoidin domain-containing receptor 1 (Homo sapiens) (UniProt Q08345); conditions: Compound concentration 1000.0 nM
[10] = molecular target: Myotonin-protein kinase (Homo sapiens) (UniProt Q09013); conditions: Compound concentration 1000.0 nM
[11] = molecular target: Ephrin type-A receptor 6 (Homo sapiens) (UniProt Q9UF33); conditions: Compound concentration 1000.0 nM
[12] = system: Fibroblast growth factor receptor 3 (Homo sapiens), P22607 [G697C]; conditions: Compound concentration 1000.0 nM
[13] = molecular target: Tyrosine-protein kinase Fgr (Homo sapiens) (UniProt P09769); conditions: Compound concentration 1000.0 nM
[14] = molecular target: Vascular endothelial growth factor receptor 1 (Homo sapiens) (UniProt P17948); conditions: Compound concentration 1000.0 nM
[15] = system: Receptor-type tyrosine-protein kinase FLT3 (Homo sapiens), P36888 [UNDEFINED MUTATION]; conditions: Compound concentration 1000.0 nM
[16] = molecular target: Homeodomain-interacting protein kinase 3 (Homo sapiens) (UniProt Q9H422); conditions: Compound concentration 1000.0 nM
[17] = molecular target: Insulin receptor-related protein (Homo sapiens) (UniProt P14616); conditions: Compound concentration 1000.0 nM
[18] = molecular target: Mitogen-activated protein kinase 8 (Homo sapiens) (UniProt P45983); conditions: Compound concentration 1000.0 nM
[19] = molecular target: Dual specificity mitogen-activated protein kinase kinase 3 (Homo sapiens) (UniProt P46734); conditions: Compound concentration 1000.0 nM
[20] = molecular target: Mitogen-activated protein kinase kinase kinase 9 (Homo sapiens) (UniProt P80192); conditions: Compound concentration 1000.0 nM
[21] = molecular target: Mitogen-activated protein kinase kinase kinase 11 (Homo sapiens) (UniProt Q16584); conditions: Compound concentration 1000.0 nM
[22] = molecular target: Macrophage-stimulating protein receptor (Homo sapiens) (UniProt Q04912); conditions: Compound concentration 1000.0 nM
[23] = molecular target: Myosin-IIIb (Homo sapiens) (UniProt Q8WXR4); conditions: Compound concentration 1000.0 nM
[24] = molecular target: Mitogen-activated protein kinase kinase kinase 14 (Homo sapiens) (UniProt Q99558); conditions: Compound concentration 1000.0 nM
[25] = molecular target: Serine/threonine-protein kinase PAK 4 (Homo sapiens) (UniProt O96013); conditions: Compound concentration 1000.0 nM
[26] = molecular target: Serine/threonine-protein kinase PAK 5 (Homo sapiens) (UniProt Q9P286); conditions: Compound concentration 1000.0 nM
[27] = molecular target: Cyclin-dependent kinase 18 (Homo sapiens) (UniProt Q07002); conditions: Compound concentration 1000.0 nM
[28] = molecular target: Phosphatidylinositol 4-phosphate 5-kinase type-1 alpha (Homo sapiens) (UniProt Q99755); conditions: Compound concentration 1000.0 nM
[29] = molecular target: Serine/threonine-protein kinase N1 (Homo sapiens) (UniProt Q16512); conditions: Compound concentration 1000.0 nM
[30] = molecular target: Serine/threonine-protein kinase PLK3 (Homo sapiens) (UniProt Q9H4B4); conditions: Compound concentration 1000.0 nM
[31] = molecular target: Protein kinase C epsilon type (Homo sapiens) (UniProt Q02156); conditions: Compound concentration 1000.0 nM
[32] = molecular target: Serine/threonine-protein kinase Sgk3 (Homo sapiens) (UniProt Q96BR1); conditions: Compound concentration 1000.0 nM
[33] = molecular target: SRSF protein kinase 1 (Homo sapiens) (UniProt Q96SB4); conditions: Compound concentration 1000.0 nM
[34] = molecular target: Tyrosine-protein kinase Tec (Homo sapiens) (UniProt P42680); conditions: Compound concentration 1000.0 nM
[35] = molecular target: Phosphatidylinositol 3-kinase catalytic subunit type 3 (Homo sapiens) (UniProt Q8NEB9); conditions: Compound concentration 1000.0 nM
[36] = molecular target: 5-hydroxytryptamine receptor 2A (Homo sapiens) (UniProt P28223); conditions: Compound concentration 10.0 uM
[37] = molecular target: Histamine H2 receptor (Homo sapiens) (UniProt P25021); conditions: Compound concentration 10.0 uM
[38] = molecular target: T1, Muscarinic acetylcholine receptor M5 (Homo sapiens) (UniProt P08912); conditions: Compound concentration 10.0 uM
T1 sequence (whole entry): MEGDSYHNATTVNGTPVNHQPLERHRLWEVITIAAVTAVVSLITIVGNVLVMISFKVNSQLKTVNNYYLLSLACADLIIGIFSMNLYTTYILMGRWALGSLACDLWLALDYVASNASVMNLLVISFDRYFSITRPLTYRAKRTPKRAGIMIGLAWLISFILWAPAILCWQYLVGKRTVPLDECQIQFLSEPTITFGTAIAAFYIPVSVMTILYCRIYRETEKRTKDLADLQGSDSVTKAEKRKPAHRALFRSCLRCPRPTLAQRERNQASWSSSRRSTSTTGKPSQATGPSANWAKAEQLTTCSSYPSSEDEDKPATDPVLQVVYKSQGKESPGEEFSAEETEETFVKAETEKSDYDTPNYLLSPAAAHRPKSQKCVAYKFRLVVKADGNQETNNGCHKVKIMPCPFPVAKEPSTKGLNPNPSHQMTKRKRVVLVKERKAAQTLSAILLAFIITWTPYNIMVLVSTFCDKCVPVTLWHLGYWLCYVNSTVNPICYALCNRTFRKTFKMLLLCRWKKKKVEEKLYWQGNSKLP

Sequence of Epithelial discoidin domain-containing receptor 1 (Homo sapiens) (Q08345 whole entry, the tested form may be a part): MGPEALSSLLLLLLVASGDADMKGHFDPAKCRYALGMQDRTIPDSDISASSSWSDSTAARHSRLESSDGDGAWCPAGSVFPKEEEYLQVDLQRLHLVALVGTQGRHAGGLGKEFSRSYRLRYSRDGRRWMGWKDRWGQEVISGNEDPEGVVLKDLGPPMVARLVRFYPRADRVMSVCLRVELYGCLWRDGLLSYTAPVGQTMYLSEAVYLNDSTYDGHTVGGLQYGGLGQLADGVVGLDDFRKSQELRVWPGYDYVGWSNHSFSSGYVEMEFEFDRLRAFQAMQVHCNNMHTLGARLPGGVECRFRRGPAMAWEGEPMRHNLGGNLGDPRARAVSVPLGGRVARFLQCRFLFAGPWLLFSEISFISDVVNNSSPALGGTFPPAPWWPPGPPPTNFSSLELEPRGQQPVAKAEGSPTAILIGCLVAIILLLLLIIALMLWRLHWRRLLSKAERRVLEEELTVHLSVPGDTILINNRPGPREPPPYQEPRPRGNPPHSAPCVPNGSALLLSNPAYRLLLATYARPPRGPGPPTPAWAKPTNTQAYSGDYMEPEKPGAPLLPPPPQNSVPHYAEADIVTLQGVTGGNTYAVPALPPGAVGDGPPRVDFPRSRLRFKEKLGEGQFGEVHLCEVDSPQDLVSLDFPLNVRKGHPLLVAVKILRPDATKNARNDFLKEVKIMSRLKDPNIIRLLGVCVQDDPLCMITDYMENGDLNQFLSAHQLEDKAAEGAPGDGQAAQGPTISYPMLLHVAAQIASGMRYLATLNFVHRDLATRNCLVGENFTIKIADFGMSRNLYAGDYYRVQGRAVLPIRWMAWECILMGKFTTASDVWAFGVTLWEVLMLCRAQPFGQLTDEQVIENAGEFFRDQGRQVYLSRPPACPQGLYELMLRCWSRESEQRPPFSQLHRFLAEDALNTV
Sequence of Homeodomain-interacting protein kinase 3 (Homo sapiens) (Q9H422 whole entry, looked up): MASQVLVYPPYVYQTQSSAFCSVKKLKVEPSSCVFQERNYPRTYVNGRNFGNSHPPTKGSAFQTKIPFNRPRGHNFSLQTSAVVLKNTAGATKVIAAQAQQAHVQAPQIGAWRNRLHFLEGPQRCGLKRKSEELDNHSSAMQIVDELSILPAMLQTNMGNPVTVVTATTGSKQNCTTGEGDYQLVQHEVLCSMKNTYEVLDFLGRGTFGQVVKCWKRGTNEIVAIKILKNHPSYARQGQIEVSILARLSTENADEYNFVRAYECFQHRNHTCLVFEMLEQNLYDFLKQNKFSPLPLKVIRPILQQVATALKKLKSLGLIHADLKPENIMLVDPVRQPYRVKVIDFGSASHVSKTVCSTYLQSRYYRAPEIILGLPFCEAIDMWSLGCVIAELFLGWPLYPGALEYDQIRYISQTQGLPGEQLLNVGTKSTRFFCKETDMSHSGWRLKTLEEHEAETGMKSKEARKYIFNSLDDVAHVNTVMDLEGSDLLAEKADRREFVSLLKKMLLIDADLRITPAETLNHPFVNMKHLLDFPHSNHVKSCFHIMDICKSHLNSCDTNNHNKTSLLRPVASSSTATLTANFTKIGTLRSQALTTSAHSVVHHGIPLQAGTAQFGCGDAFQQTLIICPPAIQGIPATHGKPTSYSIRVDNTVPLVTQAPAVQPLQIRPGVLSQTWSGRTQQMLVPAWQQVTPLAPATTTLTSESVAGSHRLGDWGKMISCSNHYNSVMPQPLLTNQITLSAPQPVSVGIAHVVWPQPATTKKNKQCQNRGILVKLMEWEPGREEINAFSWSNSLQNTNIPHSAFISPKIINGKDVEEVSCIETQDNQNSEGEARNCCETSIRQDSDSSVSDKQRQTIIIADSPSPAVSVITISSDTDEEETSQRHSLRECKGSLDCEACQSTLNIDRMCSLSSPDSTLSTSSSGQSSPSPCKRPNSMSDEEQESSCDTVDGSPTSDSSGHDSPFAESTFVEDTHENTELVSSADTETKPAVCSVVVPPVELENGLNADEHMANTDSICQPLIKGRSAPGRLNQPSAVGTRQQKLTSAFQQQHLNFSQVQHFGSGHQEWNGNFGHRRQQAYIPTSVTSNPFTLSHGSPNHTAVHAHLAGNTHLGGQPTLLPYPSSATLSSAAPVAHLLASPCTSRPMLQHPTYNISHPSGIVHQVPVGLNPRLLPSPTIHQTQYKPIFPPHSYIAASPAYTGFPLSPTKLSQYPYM
Sequence of Tyrosine-protein kinase Fgr (Homo sapiens) (P09769 2-529 limits assumed): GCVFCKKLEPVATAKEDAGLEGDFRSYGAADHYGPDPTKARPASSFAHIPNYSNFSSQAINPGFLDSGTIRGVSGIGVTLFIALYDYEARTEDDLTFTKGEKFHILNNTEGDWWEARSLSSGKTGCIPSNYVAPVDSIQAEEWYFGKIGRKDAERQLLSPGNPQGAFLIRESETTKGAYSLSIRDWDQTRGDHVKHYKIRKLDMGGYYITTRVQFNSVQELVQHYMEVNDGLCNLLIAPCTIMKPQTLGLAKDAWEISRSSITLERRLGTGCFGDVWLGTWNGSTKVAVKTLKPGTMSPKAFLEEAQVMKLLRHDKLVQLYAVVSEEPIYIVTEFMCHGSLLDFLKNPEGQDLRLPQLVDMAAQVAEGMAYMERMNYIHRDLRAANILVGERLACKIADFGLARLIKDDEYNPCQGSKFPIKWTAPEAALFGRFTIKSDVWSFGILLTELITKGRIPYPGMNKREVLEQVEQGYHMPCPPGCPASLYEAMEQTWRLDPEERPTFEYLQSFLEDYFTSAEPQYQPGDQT
Sequence of Receptor-type tyrosine-protein kinase FLT3 (Homo sapiens), P36888 [UNDEFINED MUTATION] (P36888 whole entry, looked up, change not shown): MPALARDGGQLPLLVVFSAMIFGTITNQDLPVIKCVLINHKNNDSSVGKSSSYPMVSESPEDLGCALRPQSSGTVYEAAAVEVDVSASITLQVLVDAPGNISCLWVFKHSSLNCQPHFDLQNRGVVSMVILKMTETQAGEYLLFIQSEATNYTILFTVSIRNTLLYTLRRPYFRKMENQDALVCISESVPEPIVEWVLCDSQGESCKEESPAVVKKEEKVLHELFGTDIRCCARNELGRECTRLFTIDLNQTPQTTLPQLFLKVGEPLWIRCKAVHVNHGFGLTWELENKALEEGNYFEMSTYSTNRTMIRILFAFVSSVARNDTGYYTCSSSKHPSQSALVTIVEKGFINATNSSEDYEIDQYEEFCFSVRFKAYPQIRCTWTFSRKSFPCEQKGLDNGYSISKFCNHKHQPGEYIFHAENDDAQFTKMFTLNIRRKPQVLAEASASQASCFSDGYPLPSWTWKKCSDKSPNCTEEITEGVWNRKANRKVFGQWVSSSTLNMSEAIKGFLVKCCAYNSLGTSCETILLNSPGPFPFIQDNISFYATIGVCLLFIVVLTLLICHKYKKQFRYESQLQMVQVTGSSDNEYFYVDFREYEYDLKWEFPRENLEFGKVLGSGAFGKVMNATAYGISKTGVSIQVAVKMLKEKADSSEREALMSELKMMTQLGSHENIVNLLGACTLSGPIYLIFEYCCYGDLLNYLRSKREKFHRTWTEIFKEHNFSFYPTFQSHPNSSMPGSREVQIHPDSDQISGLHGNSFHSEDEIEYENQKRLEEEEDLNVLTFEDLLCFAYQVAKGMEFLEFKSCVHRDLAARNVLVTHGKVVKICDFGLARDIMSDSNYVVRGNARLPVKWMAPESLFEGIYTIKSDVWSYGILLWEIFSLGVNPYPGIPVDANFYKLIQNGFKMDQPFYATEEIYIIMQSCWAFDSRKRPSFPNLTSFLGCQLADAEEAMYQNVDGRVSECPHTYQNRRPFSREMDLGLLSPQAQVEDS
Sequence of Casein kinase I isoform gamma-3 (Homo sapiens) (Q9Y6M4 whole entry, looked up, canonical isoform): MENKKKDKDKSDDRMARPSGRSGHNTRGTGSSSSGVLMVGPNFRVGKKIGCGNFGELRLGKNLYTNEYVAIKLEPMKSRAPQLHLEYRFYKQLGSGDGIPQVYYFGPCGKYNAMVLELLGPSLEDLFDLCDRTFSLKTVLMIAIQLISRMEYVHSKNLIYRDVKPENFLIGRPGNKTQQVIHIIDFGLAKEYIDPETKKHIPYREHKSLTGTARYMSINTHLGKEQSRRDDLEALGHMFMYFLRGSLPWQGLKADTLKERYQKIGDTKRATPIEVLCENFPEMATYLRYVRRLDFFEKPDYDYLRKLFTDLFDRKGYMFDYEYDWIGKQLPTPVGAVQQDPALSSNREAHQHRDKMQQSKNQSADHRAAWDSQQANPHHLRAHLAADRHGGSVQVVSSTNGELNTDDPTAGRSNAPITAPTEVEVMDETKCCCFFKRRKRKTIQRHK
Sequence of Histamine H2 receptor (Homo sapiens) (P25021 whole entry): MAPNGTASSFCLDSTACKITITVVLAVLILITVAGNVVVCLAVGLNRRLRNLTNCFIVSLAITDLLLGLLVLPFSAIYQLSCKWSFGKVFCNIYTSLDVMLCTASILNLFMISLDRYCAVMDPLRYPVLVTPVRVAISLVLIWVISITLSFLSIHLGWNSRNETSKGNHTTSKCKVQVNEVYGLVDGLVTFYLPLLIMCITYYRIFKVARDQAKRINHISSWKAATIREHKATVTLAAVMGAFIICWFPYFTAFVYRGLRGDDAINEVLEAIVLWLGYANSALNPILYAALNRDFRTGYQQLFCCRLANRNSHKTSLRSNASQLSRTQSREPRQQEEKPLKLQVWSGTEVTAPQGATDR
Sequence of Mitogen-activated protein kinase 8 (Homo sapiens) (P45983 whole entry): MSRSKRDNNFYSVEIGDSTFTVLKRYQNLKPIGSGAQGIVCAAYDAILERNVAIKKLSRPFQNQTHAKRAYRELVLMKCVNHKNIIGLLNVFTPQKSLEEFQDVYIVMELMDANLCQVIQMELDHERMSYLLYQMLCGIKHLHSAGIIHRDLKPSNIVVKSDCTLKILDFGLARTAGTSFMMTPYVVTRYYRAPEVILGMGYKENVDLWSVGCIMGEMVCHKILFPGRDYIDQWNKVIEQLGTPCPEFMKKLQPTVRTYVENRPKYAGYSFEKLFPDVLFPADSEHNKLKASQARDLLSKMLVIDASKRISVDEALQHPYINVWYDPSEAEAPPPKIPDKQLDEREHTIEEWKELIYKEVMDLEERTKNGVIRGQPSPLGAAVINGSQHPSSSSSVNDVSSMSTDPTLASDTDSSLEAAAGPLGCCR

O=C(NCc1ncc(C(F)(F)F)cc1Cl)c1ccc2c(c1)C1(CCS(=O)(=O)CC1)[C@@H](C1CC1)N2S(=O)(=O)c1ccc(F)cc1 [BAY-786]
inactive: residual activity [1] 83% | residual activity [2] 100% | residual activity [3] 85% | residual activity [4] 100% | residual activity [5] 100% | residual activity [6] 56% | residual activity [7] 100% | residual activity [8] 69% | residual activity [9] 100% | residual activity [10] 86% | residual activity [11] 100% | residual activity [12] 80% | residual activity [13] 93% | residual activity [14] 82% | residual activity [15] 67% | residual activity [16] 81% | residual activity [17] 100% | residual activity [18] 55% | residual activity [19] 73% | residual activity [20] 77% | residual activity [21] 100% | residual activity [22] 100% | residual activity [23] 100% | residual activity [24] 71% | residual activity [25] 89% | residual activity [26] 74% | residual activity [27] 100% | residual activity [28] 100% | residual activity [29] 100% | residual activity [30] 82% | residual activity [31] 76% | residual activity [32] 83% | residual activity [33] 96% | residual activity [34] 100% | residual activity [35] 89% | inhibition [36] 5.01% | inhibition [37] 16.5% | inhibition [38] -1.92%

O=C(NCc1ncc(C(F)(F)F)cc1Cl)c1ccc2c(c1)C1(CCS(=O)(=O)CC1)[C@H](C1CC1)N2S(=O)(=O)c1ccc(F)cc1 [BAY-784]
inactive: residual activity [1] 80% | residual activity [2] 85% | residual activity [3] 83% | residual activity [4] 100% | residual activity [5] 100% | residual activity [6] 64% | residual activity [7] 100% | residual activity [8] 92% | residual activity [9] 100% | residual activity [10] 93% | residual activity [11] 100% | residual activity [12] 100% | residual activity [13] 100% | residual activity [14] 98% | residual activity [15] 81% | residual activity [16] 82% | residual activity [17] 100% | residual activity [18] 87% | residual activity [19] 71% | residual activity [20] 100% | residual activity [21] 100% | residual activity [22] 99% | residual activity [23] 74% | residual activity [24] 100% | residual activity [25] 100% | residual activity [26] 100% | residual activity [27] 100% | residual activity [28] 100% | residual activity [29] 100% | residual activity [30] 92% | residual activity [31] 69% | residual activity [32] 99% | residual activity [33] 72% | residual activity [34] 100% | residual activity [35] 86% | inhibition [36] -4.7% | inhibition [37] 14.6% | inhibition [38] -6.43%

From ChEMBL document CHEMBL4507266, “Data for DCP probe BAY-784” (2021)
